Entries after “also recorded” stand apart in the source; their conditions may differ.

Assay [1] deals with microorganisms. Nature of the assay: Peptide activities: targeting/binding, antimicrobial, growth or phenotype altering (Tables 7, 8). Type of assay: cell-based. Conditions: peptides having multiple activities.
The subject of assay [2] is microorganisms. Nature of the assay: Morphology, biofilm and growth disrupting peptides (Table 5). It is filed as cell-based. Set-up: key: A: Peptide aggregates; B: Less hyphal formation; Clumps; Diffuse clumps and small polyps; F: Diffuse growth; H: Thin; I: Growth inhibition; Microcolony formation; Rippled; Small polyps; Thick; W: Halo formation on top, microlonies on bottom. The source says: In certain embodiments peptides that induce alterations in phenotype or other biological activities can also be used as antimicrobial effector moieties.

The test system of assay [3] is microorganisms. Nature of the assay: Targeting peptide binding to target microorganisms (Tables 3, 10, 12). Conditions: microorganism(s) the targeting peptide binds, preferably 1x PBS.
Setting [4] is: binding in aqueous buffers that varied with peptide solubility.
[5] abbreviates: binding in aqueous buffers varied with peptide solubility.

As to HCVIGNVVDIANLLKRRAVYRDIADVIKMR [PF-071], the Activities entry in the assay on microorganisms [1] is “G B”. In addition, in the assay with microorganisms [2], the “Organism, effect: B. subtilis” value is given as “B. subtilis (D)”; the “Organism, effect: M. luteus” value was “M. luteus (R)”; the “Organism, effect: S. epidermidis” value is reported as “S. epidermidis (R)”. In the assay with microorganisms [2] (C. albicans), the “Organism, effect: C. albicans” value is given as “C. albicans (B)”. In addition, the “Organism, effect: C. jejuni” value in the assay on microorganisms [2] (C. jejuni) is on record as “C. jejuni (A)”. Further, in the assay on microorganisms [2] (MRSA), the “Organism, effect: MRSA” value is “MRSA (C)”. For the same substance, the “Organism, effect: S. pneumoniae” value in the assay with microorganisms [2] (S. pneumoniae) is reported as “S. pneumoniae (A)”. Further, in the assay with microorganisms [3] (setting [4]), the “Target(s)” value is “S. epidermidis and E. coli and P. aeruginosa and C. albicans and MRSA and S. pneumoniae and E. faecalis”.
For the substance HKNKLNIPHIKS [PF-477], the Activities result with microorganisms [1] is given as “G B”. In addition, the “Organism, effect” value with microorganisms [2] (S. pneumoniae) was “S. pneumoniae (H)”. In addition, in the assay with microorganisms [3] (setting [5]), the “Target(s)” value is listed as “S. epidermidis; also recorded: M. luteus; also recorded: C. albicans; also recorded: S. pneumoniae; also recorded: C. jeikeium; also recorded: C. jejuni”.
KKFKIFVIINWFYHKYIILNFEENF [PF-C085]: the Activities result in the assay with microorganisms [1] was “G B”. Moreover, the “Organism, effect” value with microorganisms [2] (S. mutans) is “S. mutans (F)”. Also, the “Target(s)” value in the assay on microorganisms [3] (setting [5]) is “A. naeslundii; also recorded: F. nucleatum; also recorded: P. gingivalis; also recorded: S. mutans; also recorded: T. denticola”.
Take LHVIRPRPELSELKFPITKILKVNKQGLKK [PF-752]: the Activities entry in the assay with microorganisms [1] was “G B”. Also, the “Organism, effect” value in the assay with microorganisms [2] (S. pneumoniae) is reported as “S. pneumoniae (C)”. The “Target(s)” value in the assay with microorganisms [3] (setting [5]) is “S. epidermidis and E. coli and MRSA and S. pneumoniae and E. faecalis”.
As for LIQKGLNQTFIVVIRLNNFIKKS [PF-013], the Activities entry in the assay on microorganisms [1] is listed as “G B”. In addition, in the assay on microorganisms [2] (C. jeikeium), the “Organism, effect: C. jeikeium” value is listed as “C. jeikeium (D)”. Moreover, in the assay on microorganisms [2], the “Organism, effect: M. luteus” value is recorded as “M. luteus (D)” and the “Organism, effect: S. epidermidis” value is “S. epidermidis (C)”. Moreover, the “Organism, effect: MRSA” value in the assay on microorganisms [2] (MRSA) was “MRSA (R)”. In addition, the “Target(s)” value with microorganisms [3] (setting [4]) is “M. luteus and P. mirabilis and E. coli and P. aeruginosa and MRSA and S. pneumoniae and C. jeikeium and C. jejuni”.
For “LMFFSENMDKRDTLSGKFRYFAGSKVIKLMNWLSENGK [PF-226]”, the Activities entry in the assay with microorganisms [1] is on record as “G B”. For the same substance, in the assay on microorganisms [2], the “Organism, effect: M. luteus” value is “M. luteus (T)” and the “Organism, effect: S. epidermidis” value is recorded as “S. epidermidis (C)”. Besides, in the assay on microorganisms [3] (setting [5]), the “Target(s)” value is given as “A. baumannii”.
Regarding LNFRAENKILEKIHISLIDTVEGSA [PF-575], the Activities result in the assay with microorganisms [1] is “G B”. Moreover, the “Organism, effect” value was “C. jeikeium (A)” in the assay on microorganisms [2] (C. jeikeium), “C. jejuni (R)” in the assay with microorganisms [2] (C. jejuni), “P. aeruginosa (A)” in the assay with microorganisms [2] (P. aeruginosa) and “S. pneumoniae (A)” in the assay with microorganisms [2] (S. pneumoniae). Besides, in the assay on microorganisms [3] (setting [5]), the “Target(s)” value was “M. luteus and E. coli and C. albicans and MRSA and S. pneumoniae and E. faecalis and C. jeikeium”.
As to LSPRPIIVSRRSRADNNNDWSR [PF-143], in the assay with microorganisms [1], the Activities result is “G B”. For the same substance, the “Organism, effect: P. aeruginosa” value in the assay with microorganisms [2] (P. aeruginosa) is on record as “P. aeruginosa (C)”. For the same substance, the “Target(s)” value in the assay on microorganisms [3] (setting [5]) was “S. epidermidis and MRSA and C. jeikeium”.
MQIFYIKTKIFLSFFLFLLIFSQCFYKIEE [PF-442]: in the assay on microorganisms [1], the Activities entry is “G B”. In addition, the “Organism, effect” value in the assay with microorganisms [2] (MRSA) was “MRSA (M)”; in the assay on microorganisms [2] (S. pneumoniae) it was “S. pneumoniae (C)”. The “Target(s)” value in the assay on microorganisms [3] (setting [5]) was “S. epidermidis; also recorded: E. coli; also recorded: C. albicans; also recorded: S. pneumoniae; also recorded: E. faecalis”.
As for “NTNDLLQAFELMGLGMAGVFIVLGILYIVAELLIKIFPVNN [PF-C194]”, in the assay with microorganisms [1], the Activities result is on record as “G B”. The “Organism, effect” value with microorganisms [2] (F. nucleatum) is “F. nucleatum (T)”; in the assay with microorganisms [2] (P. gingivalis), “P. gingivalis (T)”; with microorganisms [2] (S. mutans), “S. mutans (F)”. In addition, the “Target(s)” value with microorganisms [3] (setting [5]) is on record as “A. naeslundii; also recorded: F. nucleatum; also recorded: P. gingivalis; also recorded: S. mutans; also recorded: T. denticola”.
Regarding “PF-002: peptide having multiple activities (NDDAQ; Peptide with targeting and/or antimicrobial activity)”, the Activities entry with microorganisms [1] is recorded as “G B”. In addition, the “Organism, effect: B. subtilis” value in the assay on microorganisms [2] was “B. subtilis (R)”. In addition, in the assay with microorganisms [2] (S. pneumoniae), the “Organism, effect: S. pneumoniae” value is “S. pneumoniae (H)”. For the same substance, in the assay with microorganisms [3] (setting [4]), the “Target(s)” value is given as “S. epidermidis; also recorded: P. mirabilis; also recorded: C. albicans; also recorded: C. jeikeium; also recorded: C. jejuni”.
For “PF-003: peptide having multiple activities (MNNWIKVAQISVTVINEVIDIMKEKQNGGK; Peptide with targeting and/or antimicrobial activity)”, the Activities entry in the assay on microorganisms [1] is “G B”. The “Organism, effect: C. jeikeium” value with microorganisms [2] (C. jeikeium) is reported as “C. jeikeium (A)”. In the assay with microorganisms [2], the “Organism, effect: M. luteus” value is “M. luteus (A)” and the “Organism, effect: S. epidermidis” value was “S. epidermidis (D)”. Also, the “Organism, effect: MRSA” value in the assay with microorganisms [2] (MRSA) is recorded as “MRSA (R)”. Besides, in the assay with microorganisms [3] (setting [4]), the “Target(s)” value was “S. epidermidis and M. luteus and P. mirabilis and C. albicans and MRSA and C. jeikeium”.
Regarding “PF-008: peptide having multiple activities (MIEIGSIAYLNGGSKKYNHILNQENR; Peptide with targeting and/or antimicrobial activity)”, in the assay with microorganisms [1], the Activities result is “G B”. Also, the “Organism, effect: B. subtilis” value in the assay on microorganisms [2] is listed as “B. subtilis (D)”. Besides, in the assay on microorganisms [2] (C. jejuni), the “Organism, effect: C. jejuni” value is “C. jejuni (R)”. In addition, the “Target(s)” value in the assay with microorganisms [3] (setting [4]) is “S. epidermidis and M. luteus and MRSA and C. jejuni”.
Consider “PF-009: peptide having multiple activities (SKKYNHILNQENR; Peptide with targeting and/or antimicrobial activity)”, for which, in the assay on microorganisms [1], the Activities entry is listed as “G B”. Further, the “Organism, effect: S. epidermidis” value in the assay with microorganisms [2] is “S. epidermidis (S)”. The “Target(s)” value with microorganisms [3] (setting [4]) is listed as “M. luteus; also recorded: P. mirabilis; also recorded: C. albicans”.
On to “PF-010: peptide having multiple activities (MDIDVNKLLQAFVYFKSFEKLRHNNS; Peptide with targeting and/or antimicrobial activity)”, for which, in the assay on microorganisms [1], the Activities entry is “G B”. Besides, the “Organism, effect: C. jeikeium” value in the assay with microorganisms [2] (C. jeikeium) was “C. jeikeium (A)”. In the assay on microorganisms [2], the “Organism, effect: M. luteus” value is “M. luteus (A)” and the “Organism, effect: S. epidermidis” value is reported as “S. epidermidis (S)”. Further, the “Organism, effect: MRSA” value with microorganisms [2] (MRSA) is “MRSA (R)”. In addition, in the assay with microorganisms [3] (setting [4]), the “Target(s)” value is listed as “S. epidermidis; also recorded: M. luteus; also recorded: E. coli; also recorded: C. albicans”.
On to “PF-011: peptide having multiple activities (MFCYYKQHKGDNFSIEEVKNIIADNEMKVN; Peptide with targeting and/or antimicrobial activity)”, for which the Activities result in the assay with microorganisms [1] is given as “G B”. In addition, in the assay with microorganisms [2] (C. jeikeium), the “Organism, effect: C. jeikeium” value is “C. jeikeium (C)”. For the same substance, in the assay with microorganisms [2] (MRSA), the “Organism, effect: MRSA” value is recorded as “MRSA (R)”. Besides, the “Target(s)” value with microorganisms [3] (setting [4]) was “M. luteus; also recorded: E. coli; also recorded: P. aeruginosa; also recorded: S. pneumoniae; also recorded: C. jeikeium”.
As for “PF-015: peptide having multiple activities (SIDKRNLYNLKYYE; Peptide with targeting and/or antimicrobial activity)”, the Activities result with microorganisms [1] is “G B”. In the assay on microorganisms [2] (MRSA), the “Organism, effect: MRSA” value is recorded as “MRSA (W)”. Moreover, the “Target(s)” value with microorganisms [3] (setting [4]) is “E. faecalis; also recorded: C. jeikeium”.
In the same order, the values of “PF-017: peptide having multiple activities (ESIIE; Peptide with targeting and/or antimicrobial activity)” are “G B”, “MRSA (M)” and “E. coli”.
On to “PF-020: peptide having multiple activities (MKIILLLFLIFGFIVVVTLKSEHQLTLFSI; Peptide with targeting and/or antimicrobial activity)”, for which the Activities entry with microorganisms [1] is recorded as “G B”. In the assay on microorganisms [2], the “Organism, effect: M. luteus” value is “M. luteus (C)” and the “Organism, effect: S. epidermidis” value is on record as “S. epidermidis (C)”. For the same substance, in the assay with microorganisms [2] (MRSA), the “Organism, effect: MRSA” value is “MRSA (C)”. Moreover, the “Organism, effect: S. mutans” value in the assay on microorganisms [2] (S. mutans, class symbol) is “S. mutans (F)”. Moreover, the “Organism, effect: S. pneumoniae” value in the assay on microorganisms [2] (S. pneumoniae) is “S. pneumoniae (D)”. For the same substance, in the assay with microorganisms [3] (setting [4]), the “Target(s)” value was “S. epidermidis and M. luteus and C. albicans and MRSA and S. pneumoniae and E. faecalis”.
For the substance “PF-021: peptide having multiple activities (FSLNFSKQKYVTVN; Peptide with targeting and/or antimicrobial activity)”, the Activities result with microorganisms [1] was “G B”. For the same substance, the “Organism, effect: C. jeikeium” value in the assay with microorganisms [2] (C. jeikeium) is “C. jeikeium (R)”. In addition, in the assay with microorganisms [2], the “Organism, effect: M. luteus” value is on record as “M. luteus (A)” and the “Organism, effect: S. epidermidis” value is “S. epidermidis (A)”. Besides, the “Organism, effect: MRSA” value with microorganisms [2] (MRSA) is on record as “MRSA (R)”. The “Target(s)” value in the assay with microorganisms [3] (setting [4]) was “S. epidermidis; also recorded: M. luteus; also recorded: P. mirabilis; also recorded: E. coli; also recorded: C. albicans; also recorded: E. faecalis; also recorded: C. jeikeium”.
Turning to “PF-024: peptide having multiple activities (DLRKAK; Peptide with targeting and/or antimicrobial activity)”, the Activities entry in the assay with microorganisms [1] is on record as “G B”. Further, the “Organism, effect: MRSA” value in the assay on microorganisms [2] (MRSA) is “MRSA (M)”. Besides, the “Organism, effect: S. epidermidis” value in the assay with microorganisms [2] was “S. epidermidis (D)”. Further, in the assay with microorganisms [3] (setting [4]), the “Target(s)” value is “M. luteus and C. albicans and MRSA and E. faecalis and C. jeikeium”.
Turning to “PF-025: peptide having multiple activities (LLIIFRLWLELKWKNKK; Peptide with targeting and/or antimicrobial activity)”, in the assay on microorganisms [1], the Activities result is “G B”. The “Organism, effect: C. jeikeium” value in the assay with microorganisms [2] (C. jeikeium) is “C. jeikeium (A)”. Moreover, in the assay on microorganisms [2], the “Organism, effect: M. luteus” value was “M. luteus (A)” and the “Organism, effect: S. epidermidis” value was “S. epidermidis (S)”. Also, in the assay on microorganisms [2] (MRSA), the “Organism, effect: MRSA” value is listed as “MRSA (R)”. The “Target(s)” value in the assay on microorganisms [3] (setting [4]) is “S. epidermidis and M. luteus and P. mirabilis and E. coli and P. aeruginosa and MRSA and E. faecalis and C. jejuni”.
